Assay results taken from US20130172273A1, “CYCLOTETRAPEPTIDES WITH PRO-ANGIOGENIC PROPERTIES” (GENETADI BIOTECH, S.L., priority 2010, published 2013).

Assays:
[1] = test system: 17 angiogenic and adhesion-related genes in HUVEC cells; assay: Gene regulation assay (whole human gene-expression microarray); format: cell-based; conditions: 10^−5M, 48 hours, FIG. 2
Description: HUVEC cells were maintained in CS—C Complete Medium, grown at 50 percent of confluency and then treated with 1.00E-05 M final concentration of the peptide compounds during 48 hours.
Total RNA was extracted from untreated control or RGD-compounds treated cells using TRIzol (Invitrogen) according to standard protocol. RNA was further purified with RNeasy Mini Kit (Qiagen) and the concentration and quality was assessed by NanoDrop spectrophotometer and Agilent 2100 Bioanalyzer, respectively. Only RNA Samples with a RIN number between […]were used in the microarray assays.
In order to study the intracellular effect of all RGD-binding compounds, a cell-culture whole gene-expression assay was performed. HUVEC cells were treated separately with a 10^−5M concentration of the test compounds during 48 hours. The simultaneous analysis of all human gene-expression by microarray let us identify which human gene(s) are induced, inhibited or un-affected after the test compounds were bound to the receptors of the cells.
Whole human gene expression microarray analysis was performed using Agilent Technologies (Santa Clara, Calif.). This platform comprises a two-color design with two RNA samples labelled with either Cy3 or Cy5 and hybridized to the same 44K Agilent microarray. Each array contains about 41,000 unique noncontrol 60-mer probes. RNAs from untreated and peptide treated-HUVEC cells were two-color labelled and hybridized to randomly chosen arrays a total of four times. A dye swap was performed for each sample on a different slide to remove any bias from the labelling dyes.
For each sample, 800 ng total RNA was reverse transcribed, linear amplified, and labelled with either Cy3 or Cy5 using Agilent's Low RNA Input Linear Amplification Kit PLUS, according to manufacturer's instructions. After labelling, samples were measured on a Nanodrop microarray module for labelling efficiency and quantification. Samples were then hybridized on Agilent 4×44K whole human genome GE arrays at 65° C. for 17 h. After washing in GE washing buffer, the slide was scanned with Agilent Microarray Scanner. Feature extraction software (Version 9.5.3) was used to convert the image into gene expression data. Data were normalized by the Linear Lowess method. Genes that were 1.5-fold differentially expressed on 3 of 4 arrays were scored as significant. Furthermore, only genes with a p-value≦0.05 based on a Student's t-test were selected. Mean fold change is mean of 4 arrays. Angiogenic-related genes were classified according to Gene Ontology.

[2] = biological target: αvβ3 integrin (Homo sapiens, UniProt P05106+P06756); conditions: J. Med. Chem. 2010, vol. 53(1), pp. 106-118; cited from earlier work
[3] = test system: αvβ3 integrin over-expressed human umbilical vein endothelial cells (HUVEC); assay: Endothelial cell adhesion assay (adhesion inhibition on a vitronectin surface); format: cell-based; conditions: HUVEC on vitronectin-coated plate, 1 h at 37° C.; FIG. 1
Description: Human umbilical endothelial cell (HUVEC) was purchased from Cambrex BioScience (USA). Cells were grown on the 0.5% gelatin coated plate in CS—C Complete Medium (Sigma) and were used for experiments after three passages. DLD-1, human colon cancer cell line was purchased from LGC/ATCC (Cat. Number CCL-221), and maintained in RPMI 1640 (Sigma) supplemented with 10% FBS (Sigma). Human vitronectin was from Sigma. Peptides to be assayed were dissolved in double-distilled water at a concentration of 10 mg/ml and stored in the dark at −80°.
HUVEC cells were grown to subconfluent state and then harvested by 0.025% trypsin/EDTA (Sigma) in one minute. Cells were preincubated with various concentrations of peptides on ice for 15 min in CS—C Medium. Same volume of vehicle was added to cells as a control. Peptide-treated cells (5×10^4 cells/100 μl/well) were plated onto a 96-well microplate which was precoated with vitronectin ([…] in PBS), and incubated for 1 h at 37° C., 5% CO^2/95% air to allow cell attachment. Cells were washed gently with PBS for three times to remove detached cells. Number of adherent cells was measured by Fluorescent Cell counting Kit (FCCK) at 535 nm (excitation at 485 nm) using a fluorescent plate reader (Bioscan). […]
Data are expressed as the means±standard error of mean (SEM). Statistical differences among treatment groups were assessed by analysis of variance (ANOVA). […]

[4] = of 17 angiogenic and adhesion-related genes

Chain of αvβ3 integrin (P06756 31-889 limits assumed): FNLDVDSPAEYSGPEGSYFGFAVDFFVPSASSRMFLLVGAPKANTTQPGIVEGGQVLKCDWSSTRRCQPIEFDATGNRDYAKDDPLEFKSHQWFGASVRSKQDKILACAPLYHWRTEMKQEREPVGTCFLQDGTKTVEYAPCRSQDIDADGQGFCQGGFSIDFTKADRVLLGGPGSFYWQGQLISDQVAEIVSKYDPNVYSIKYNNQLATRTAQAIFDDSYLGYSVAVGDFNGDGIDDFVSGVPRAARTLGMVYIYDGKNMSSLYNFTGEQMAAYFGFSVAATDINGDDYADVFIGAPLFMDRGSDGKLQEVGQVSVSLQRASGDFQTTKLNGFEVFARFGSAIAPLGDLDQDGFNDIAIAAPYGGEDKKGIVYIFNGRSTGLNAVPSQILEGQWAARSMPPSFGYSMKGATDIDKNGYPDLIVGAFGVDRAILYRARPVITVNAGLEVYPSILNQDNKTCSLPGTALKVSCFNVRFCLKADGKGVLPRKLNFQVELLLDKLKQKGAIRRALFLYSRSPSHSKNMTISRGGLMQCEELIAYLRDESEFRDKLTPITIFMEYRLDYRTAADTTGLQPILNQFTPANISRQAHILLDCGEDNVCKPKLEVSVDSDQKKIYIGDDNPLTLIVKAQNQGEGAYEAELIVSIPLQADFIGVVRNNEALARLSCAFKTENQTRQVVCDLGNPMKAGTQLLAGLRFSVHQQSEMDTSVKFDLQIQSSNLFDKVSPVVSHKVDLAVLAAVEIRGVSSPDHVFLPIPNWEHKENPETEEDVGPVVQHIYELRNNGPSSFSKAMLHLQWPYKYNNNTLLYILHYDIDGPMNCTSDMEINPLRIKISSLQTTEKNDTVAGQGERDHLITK
Chain of αvβ3 integrin (P06756 891-1048 limits assumed): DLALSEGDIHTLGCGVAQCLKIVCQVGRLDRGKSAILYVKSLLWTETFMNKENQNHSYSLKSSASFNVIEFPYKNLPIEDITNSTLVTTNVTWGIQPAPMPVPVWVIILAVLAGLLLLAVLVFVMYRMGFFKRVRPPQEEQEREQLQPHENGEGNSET
Chain of αvβ3 integrin (P05106 27-788): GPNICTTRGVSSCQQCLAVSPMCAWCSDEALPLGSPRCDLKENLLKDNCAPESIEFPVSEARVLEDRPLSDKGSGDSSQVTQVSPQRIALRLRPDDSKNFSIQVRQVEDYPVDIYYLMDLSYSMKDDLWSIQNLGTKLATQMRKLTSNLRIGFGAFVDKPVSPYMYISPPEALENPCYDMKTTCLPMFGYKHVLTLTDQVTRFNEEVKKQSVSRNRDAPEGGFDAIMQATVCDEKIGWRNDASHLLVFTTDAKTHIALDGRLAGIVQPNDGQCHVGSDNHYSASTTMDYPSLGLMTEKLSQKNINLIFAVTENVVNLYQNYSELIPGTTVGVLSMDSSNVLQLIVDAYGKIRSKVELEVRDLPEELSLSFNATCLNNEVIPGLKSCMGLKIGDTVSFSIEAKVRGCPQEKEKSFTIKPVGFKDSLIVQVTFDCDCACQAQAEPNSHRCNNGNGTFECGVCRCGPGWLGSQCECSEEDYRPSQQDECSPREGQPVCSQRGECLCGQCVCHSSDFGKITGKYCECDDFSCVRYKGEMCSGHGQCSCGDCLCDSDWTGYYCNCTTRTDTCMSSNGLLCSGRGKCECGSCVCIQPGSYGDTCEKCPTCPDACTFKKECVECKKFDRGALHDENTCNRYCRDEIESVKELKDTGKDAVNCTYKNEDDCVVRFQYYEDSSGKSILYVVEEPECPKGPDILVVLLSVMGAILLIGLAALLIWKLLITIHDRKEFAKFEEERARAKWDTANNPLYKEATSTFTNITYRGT

CC(C)[C@H]1C(=O)N[C@@H](CCCN=C(N)N)C(=O)NCC(=O)N[C@@H](CC(=O)O)C(=O)N[C@H](Cc2ccccc2)C(=O)N1C [cilengitide, cyclo(Arg-Gly-Asp-(D)Phe-N(Me)Val)]
genes activated after treatment [1, 4]: 10 genes
genes blocked after treatment [1, 4]: 7 genes

N=C(N)NCCC[C@@H]1NC(=O)CN2C(=O)C(NC(=O)[C@H](CC(=O)O)NC(=O)CNC1=O)[C@H]2[C@H](O)CO (stereo partly shown) [compound 1]
pattern of gene-expression conserved relative to cilengitide ([1]; of 17 genes): 15/17

CC1(C)C(=O)N[C@@H](CCCNC(=N)N)C(=O)NCC(=O)N[C@@H](CC(=O)O)C(=O)NC2(Cc3ccccc3)CN1C2=O (stereo partly shown) [compound 2]
pattern of gene-expression conserved relative to cilengitide ([1]; of 17 genes): 14 of 17

c[(R)-βPheψ(NHCO)Aspψ(NHCO)Gly-Arg]
inhibiting the αvβ3 integrin-mediated cell adhesion [2]: good activity

cyclo-[Asp-(beta-Lactam)-Arg [Example 24]
adhesion inhibition (% of cell adhesion vs. concentration) [3]: comparable adhesion inhibition as cilengitide and the RGD-cyclopentapeptides
pattern of gene-expression almost opposite (activation vs inhibition) compared with cilengitide ([1]; of 17 genes): 15 of 17
